Experimental data as given in PubChem BioAssay AID2060499 (Molecular Pharmacology Branch, DTP, NCI, 2025).

Tested on: 777334-354-R2-J4-PDC tumor spheroids with HUVEC/MSC, viability
Test: Anticancer human tumor 777334-354-R2-J4-PDC patient-derived pancreatic adenocarcinoma cell line growth inhibition [GQUAD]
Details: for IC50: curve of first compound; for viability, T/C: stronger effect = lower value
Method in brief: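 Viability of tumor cells grown as complex spheroids with endothelial and stromal cells, exposed to drug combinations. Top concentration at or near clinical Cmax (else 10 microM), diluted in half-log increments.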

[1] = second compound 0.0316 µM, first compound 0.0316 µM
[2] = second compound 0.0316 µM, first compound 0.1 µM
[3] = second compound 0.0316 µM, first compound 0.316 µM
[4] = second compound 0.0316 µM, first compound 1 µM
[5] = second compound 0.0316 µM, first compound 3.16 µM
[6] = second compound 0.0316 µM, first compound 10 µM
[7] = second compound 0.1 µM, first compound 0.0316 µM
[8] = second compound 0.1 µM, first compound 0.1 µM
[9] = second compound 0.1 µM, first compound 0.316 µM
[10] = second compound 0.1 µM, first compound 1 µM
[11] = second compound 0.1 µM, first compound 3.16 µM
[12] = second compound 0.1 µM, first compound 10 µM
[13] = second compound 0.316 µM, first compound 0.0316 µM
[14] = second compound 0.316 µM, first compound 0.1 µM
[15] = second compound 0.316 µM, first compound 0.316 µM
[16] = second compound 0.316 µM, first compound 1 µM
[17] = second compound 0.316 µM, first compound 3.16 µM
[18] = second compound 0.316 µM, first compound 10 µM
[19] = second compound 1 µM, first compound 0.0316 µM
[20] = second compound 1 µM, first compound 0.1 µM
[21] = second compound 1 µM, first compound 0.316 µM
[22] = second compound 1 µM, first compound 1 µM
[23] = second compound 1 µM, first compound 3.16 µM
[24] = second compound 1 µM, first compound 10 µM
[25] = second compound 3.16 µM, first compound 0.0316 µM
[26] = second compound 3.16 µM, first compound 0.1 µM
[27] = second compound 3.16 µM, first compound 0.316 µM
[28] = second compound 3.16 µM, first compound 1 µM
[29] = second compound 3.16 µM, first compound 3.16 µM
[30] = second compound 3.16 µM, first compound 10 µM
[31] = second compound 10 µM, first compound 0.0316 µM
[32] = second compound 10 µM, first compound 0.1 µM
[33] = second compound 10 µM, first compound 0.316 µM
[34] = second compound 10 µM, first compound 1 µM
[35] = second compound 10 µM, first compound 3.16 µM
[36] = second compound 10 µM, first compound 10 µM
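Note: spheroids exposed to compounds for 7 days before readout.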

C=CC(=O)N1CCN(c2nc(=O)n(-c3c(C)ccnc3C(C)C)c3nc(-c4c(O)cccc4F)c(F)cc23)C(C)C1 (stereo unspecified) + Cc1[nH]c2ccc(F)cc2c1-c1nc2c3cccnc3c3ncccc3c2[nH]1
IC50 (second compound 0.0316 µM): > 10 µM
IC50 (second compound 0.1 µM): > 10 µM
IC50 (second compound 0.316 µM): > 10 µM
IC50 (second compound 1 µM): > 10 µM
IC50 (second compound 3.16 µM): < 0.0316 µM
IC50 (second compound 10 µM): < 0.0316 µM
viability, T/C [1]: 108%
viability, T/C [2]: 86.6%
viability, T/C [3]: 111%
viability, T/C [4]: 95.7%
viability, T/C [5]: 118%
viability, T/C [6]: 114%
viability, T/C [7]: 99.8%
viability, T/C [8]: 89.5%
viability, T/C [9]: 105%
viability, T/C [10]: 91.3%
viability, T/C [11]: 102%
viability, T/C [12]: 120%
viability, T/C [13]: 82.6%
viability, T/C [14]: 91.8%
viability, T/C [15]: 92%
viability, T/C [16]: 108%
viability, T/C [17]: 110%
viability, T/C [18]: 97.1%
viability, T/C [19]: 81.3%
viability, T/C [20]: 79.8%
viability, T/C [21]: 91.6%
viability, T/C [22]: 91.5%
viability, T/C [23]: 98.9%
viability, T/C [24]: 94.3%
viability, T/C [25]: 34.3%
viability, T/C [26]: 44.6%
viability, T/C [27]: 40.6%
viability, T/C [28]: 41%
viability, T/C [29]: 47%
viability, T/C [30]: 40.4%
viability, T/C [31]: 28.9%
viability, T/C [32]: 31.5%
viability, T/C [33]: 34.7%
viability, T/C [34]: 22.7%
viability, T/C [35]: 22.9%
viability, T/C [36]: 46.4%

Cc1cccc(N(C)C(=O)C2C(O)CCN2c2nc(C)cc(C(F)(F)F)c2C#N)c1 (stereo unspecified) + CN(C)c1ccc(Nc2c3ccc(NC(=O)CCN4CCCC4)cc3nc3cc(NC(=O)CCN4CCCC4)ccc23)cc1
IC50 (second compound 0.0316 µM): > 10 µM
IC50 (second compound 0.1 µM): > 10 µM
IC50 (second compound 0.316 µM): > 10 µM
IC50 (second compound 1 µM): > 10 µM
IC50 (second compound 3.16 µM): > 10 µM
IC50 (second compound 10 µM): 10 µM
viability, T/C [1]: 89.3%
viability, T/C [2]: 87.3%
viability, T/C [3]: 101%
viability, T/C [4]: 87.2%
viability, T/C [5]: 93.2%
viability, T/C [6]: 89.7%
viability, T/C [7]: 87.1%
viability, T/C [8]: 93.3%
viability, T/C [9]: 85.1%
viability, T/C [10]: 93.1%
viability, T/C [11]: 95.2%
viability, T/C [12]: 90.9%
viability, T/C [13]: 95.3%
viability, T/C [14]: 79.1%
viability, T/C [15]: 94.8%
viability, T/C [16]: 89.1%
viability, T/C [17]: 106%
viability, T/C [18]: 88.5%
viability, T/C [19]: 90.7%
viability, T/C [20]: 82.5%
viability, T/C [21]: 76.6%
viability, T/C [22]: 84.1%
viability, T/C [23]: 96.7%
viability, T/C [24]: 81.8%
viability, T/C [25]: 77%
viability, T/C [26]: 71.2%
viability, T/C [27]: 85.1%
viability, T/C [28]: 75.3%
viability, T/C [29]: 80.1%
viability, T/C [30]: 80.6%
viability, T/C [31]: 73.7%
viability, T/C [32]: 79%
viability, T/C [33]: 69.9%
viability, T/C [34]: 71.7%
viability, T/C [35]: 62.8%
viability, T/C [36]: 50%

Cc1[nH]c2ccccc2c1CCNCc1ccc(/C=C/C(=O)NO)cc1 + CN(C)c1ccc(Nc2c3ccc(NC(=O)CCN4CCCC4)cc3nc3cc(NC(=O)CCN4CCCC4)ccc23)cc1
IC50 (second compound 0.0316 µM): 0.202 µM
IC50 (second compound 0.1 µM): 0.185 µM
IC50 (second compound 0.316 µM): 0.22 µM
IC50 (second compound 1 µM): 0.214 µM
IC50 (second compound 3.16 µM): 0.175 µM
IC50 (second compound 10 µM): 0.104 µM
viability, T/C (second compound 0.0316 µM, first compound 0.000999 µM): 104%
viability, T/C (second compound 0.0316 µM, first compound 0.00316 µM): 83.1%
viability, T/C (second compound 0.0316 µM, first compound 0.00999 µM): 97.8%
viability, T/C [1]: 90.5%
viability, T/C (second compound 0.0316 µM, first compound 0.0999 µM): 75.8%
viability, T/C [3]: 33.4%
viability, T/C (second compound 0.1 µM, first compound 0.000999 µM): 108%
viability, T/C (second compound 0.1 µM, first compound 0.00316 µM): 84.8%
viability, T/C (second compound 0.1 µM, first compound 0.00999 µM): 103%
viability, T/C [7]: 86.2%
viability, T/C (second compound 0.1 µM, first compound 0.0999 µM): 73.2%
viability, T/C [9]: 30.8%
viability, T/C (second compound 0.316 µM, first compound 0.000999 µM): 92.3%
viability, T/C (second compound 0.316 µM, first compound 0.00316 µM): 88.4%
viability, T/C (second compound 0.316 µM, first compound 0.00999 µM): 99.5%
viability, T/C [13]: 88.9%
viability, T/C (second compound 0.316 µM, first compound 0.0999 µM): 79.6%
viability, T/C [15]: 36.4%
viability, T/C (second compound 1 µM, first compound 0.000999 µM): 84.8%
viability, T/C (second compound 1 µM, first compound 0.00316 µM): 86.9%
viability, T/C (second compound 1 µM, first compound 0.00999 µM): 88.3%
viability, T/C [19]: 79%
viability, T/C (second compound 1 µM, first compound 0.0999 µM): 71.9%
viability, T/C [21]: 38.9%
viability, T/C (second compound 3.16 µM, first compound 0.000999 µM): 90.6%
viability, T/C (second compound 3.16 µM, first compound 0.00316 µM): 86.9%
viability, T/C (second compound 3.16 µM, first compound 0.00999 µM): 89%
viability, T/C [25]: 79.5%
viability, T/C (second compound 3.16 µM, first compound 0.0999 µM): 66.1%
viability, T/C [27]: 33.5%
viability, T/C (second compound 10 µM, first compound 0.000999 µM): 77%
viability, T/C (second compound 10 µM, first compound 0.00316 µM): 80.1%
viability, T/C (second compound 10 µM, first compound 0.00999 µM): 80.6%
viability, T/C [31]: 70.4%
viability, T/C (second compound 10 µM, first compound 0.0999 µM): 51.2%
viability, T/C [33]: 26.4%
